Laboratory results published in patent US20240245666A1, “DOSING REGIMENS” (Novartis AG, priority 2021, published 2024).
Where “and” joins values, the source holds several entries; their conditions need not be identical. Identical values can stand only once. Like-named read-outs stand apart in the source and are kept apart here.

Columns and labels:
[1] = Phase I study, FE study group: asciminib under fasted, low-fat meal and high-fat meal conditions (PK and safety); settings: for asciminib AUCinf, Gmean / asciminib AUCinf, Median / asciminib AUCinf, adjusted Gmean / asciminib AUClast, Gmean / asciminib AUClast, Median / asciminib AUClast, adjusted Gmean / asciminib Cmax, Gmean / asciminib Cmax, Median / asciminib Cmax, Range / asciminib Cmax, adjusted Gmean / asciminib T1/2, Range / asciminib Tmax, Range / reduction in asciminib exposure (AUCinf; AUCinf and AUClast) compared with fasted conditions / asciminib Tmax, Median: single 40 mg;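 also: healthy volunteers, open-label single-center study, PK parameters from individual plasma concentration-time profiles by non-compartmental analysis, 7-day washout between treatment periods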
[2] = single agent, patients with CML; cited from earlier work
[3] = In vitro flux study: dissolution and permeation of asciminib film-coated tablets through an artificial lipid membrane; format: in vitro ADME; settings: 2×20 mg film-coated tablets; for flux rate (permeation through an artificial lipid membrane): 37° C.
Experimental: The donor compartment of a United States Pharmacopeia, Method II (USP II) dissolution apparatus (Distek corporation; New Jersey, United States) was filled with 900 mL maleate buffer containing either low concentrations of bile salts (imitating fasted conditions; Fasted State Simulated Intestinal Fluid [FaSSIF]; 3 mM taurocholate/taurodeoxycholate, 0.2 mM phospholipids/lysophospholipids, pH 5.8), high concentrations of bile salts (imitating fed intestinal conditions; Fed State Simulated Intestinal Fluid [FeSSIF]; 10 mM taurocholate/taurodeoxycholate, 2 mM phospholipids/lysophospholipids, 0.8/5.0 mM oleate/glycerol monoleate, pH 6.0), or no bile salts (control; pH 6.5). […] Two replicates per condition were performed.

clinical [4] = settings: human, in vivo, 40 mg
clinical [5] = settings: human, plasma, oral, 40 mg
[6] = initial asciminib tablet formulations, cited from earlier work
[7] = Phase I study, DDI study group: asciminib with or without imatinib at steady state under low-fat meal conditions (PK and safety); settings: imatinib 400 mg qd steady state alone (Day 12)
[8] = control buffer, no bile salts (pH 6.5)
[9] = fasted state buffer (FaSSIF, pH 5.8)
[10] = fed state buffer (FeSSIF, pH 6.0)

O=C(Nc1ccc(OC(F)(F)Cl)cc1)c1cnc(N2CC[C@@H](O)C2)c(-c2ccn[nH]2)c1 [asciminib, N-[4-(Chlorodifluoromethoxy)phenyl]-6-[(3R)-3-hydroxypyrrolidin-1-yl]-5-(1H-pyrazol-5-yl)pyridine-3-carboxamide]
participants with at least 1 AE ([1]; FE group, 11 of 24 participants): 45.8% | participants with oropharyngeal pain and rhinitis (each) ([1]; FE group, each n=2): 8.3% | asciminib AUCinf, Gmean ([1]; fasted, n=24): 5830 ng·h/mL | asciminib AUCinf, Median ([1]; fasted, n=24): 5890 ng·h/mL | asciminib AUCinf, adjusted Gmean ([1]; fasted, n=24): 5830 ng·h/mL | asciminib AUClast, Gmean ([1]; fasted, n=24): 5730 ng·h/mL | asciminib AUClast, Median ([1]; fasted, n=24): 5820 ng·h/mL | asciminib AUClast, adjusted Gmean ([1]; fasted, n=24): 5730 ng·h/mL | asciminib Cmax, Gmean ([1]; fasted, n=24): 550 ng/mL | asciminib Cmax, Median ([1]; fasted, n=24): 572 ng/mL | asciminib Cmax, Range ([1]; fasted, n=24): 280 to 1050 ng/mL | asciminib Cmax, adjusted Gmean ([1]; fasted, n=24): 550 ng/mL | asciminib T1/2, Range ([1]; fasted, n=24): 9.18 to 19.1 h | asciminib Tmax, Range ([1]; fasted, n=24): 1.00 to 5.00 h | reduction in asciminib exposure (AUCinf; AUCinf and AUClast) compared with fasted conditions ([1]; high-fat meal): 62.3% and 62-63% | asciminib AUCinf, Gmean ([1]; high-fat meal, n=24): 2200 ng·h/mL | asciminib AUCinf, Median ([1]; high-fat meal, n=24): 2040 ng·h/mL | asciminib AUCinf, adjusted Gmean ([1]; high-fat meal, n=24): 2200 ng·h/mL | asciminib AUClast, Gmean ([1]; high-fat meal, n=24): 2130 ng·h/mL | asciminib AUClast, Median ([1]; high-fat meal, n=24): 1960 ng·h/mL | asciminib AUClast, adjusted Gmean ([1]; high-fat meal, n=24): 2130 ng·h/mL | asciminib Cmax, Gmean ([1]; high-fat meal, n=24): 175 ng/mL | asciminib Cmax, Median ([1]; high-fat meal, n=24): 159 ng/mL | asciminib Cmax, Range ([1]; high-fat meal, n=24): 82.2 to 423 ng/mL | asciminib Cmax, adjusted Gmean ([1]; high-fat meal, n=24): 175 ng/mL | asciminib T1/2, Range ([1]; high-fat meal, n=24): 8.81 to 18.1 h | asciminib Tmax, Median ([1]; high-fat meal, n=24): 4.01 h | asciminib Tmax, Range ([1]; high-fat meal, n=24): 1.00 to 8.00 h | reduction in asciminib exposure (AUCinf; AUCinf and AUClast) compared with fasted conditions ([1]; low-fat meal): 30% | asciminib AUCinf, Gmean ([1]; low-fat meal, n=23): 4130 ng·h/mL | asciminib AUCinf, Median ([1]; low-fat meal, n=23): 4300 ng·h/mL | asciminib AUCinf, adjusted Gmean ([1]; low-fat meal, n=23): 4080 ng·h/mL | asciminib AUClast, Gmean ([1]; low-fat meal, n=23): 4060 ng·h/mL | asciminib AUClast, Median ([1]; low-fat meal, n=23): 4270 ng·h/mL | asciminib AUClast, adjusted Gmean ([1]; low-fat meal, n=23): 4010 ng·h/mL | asciminib Cmax, Gmean ([1]; low-fat meal, n=23): 363 ng/mL | asciminib Cmax, Median ([1]; low-fat meal, n=23): 365 ng/mL | asciminib Cmax, Range ([1]; low-fat meal, n=23): 172 to 709 ng/mL | asciminib Cmax, adjusted Gmean ([1]; low-fat meal, n=23): 359 ng/mL | asciminib T1/2, Range ([1]; low-fat meal, n=23): 9.70 to 17.7 h | asciminib Tmax, Median ([1]; low-fat meal, n=23): 3.00 h | asciminib Tmax, Range ([1]; low-fat meal, n=23): 0.997 to 5.00 h | maximum tolerated dose (not reached) [2]: > 200 mg twice daily | dissolution [3, 8]: 82.3% | flux rate (permeation through an artificial lipid membrane) [3, 8]: 2.66 µg/min | dissolution [3, 9]: 93.1% | flux rate (permeation through an artificial lipid membrane) [3, 9]: 1.45 µg/min | dissolution [3, 10]: 94.2% | flux rate (permeation through an artificial lipid membrane) [3, 10]: 0.44 µg/min | clearance (clinical [4]): 185 mL/min | half-life (clinical [5]): 13.5 h | decreased asciminib exposure compared with the fasted state ([6]; high-fat meal): ~65% and 63-64% | decreased asciminib exposure compared with the fasted state ([6]; low-fat meal): ~30% and 30-31%

Cc1ccc(NC(=O)c2ccc(CN3CCN(C)CC3)cc2)cc1Nc1nccc(-c2cccnc2)n1 [imatinib]
imatinib AUC0-24h, Gmean [7]: 33,600 ng×h/mL | imatinib AUClast, Gmean [7]: 33,600 ng×h/mL
